The values below are quoted from earlier work in patent US7485688B2, “Water and oil producing composition” (priority 2004, dated 2009).

For this series, the system named is rats or mice. Conditions: acute oral toxicity in rats or mice.

One may read the LD50 as the dose expected to kill half of the subjects tested. For `CCC(C)(C#N)N=NC(C)(C#N)CC` (centres unmarked) [2,2′-azobis-2-methylbutyronitrile], the LD50 is 1316 mg/kg.
As for `CC(C)CC(C)(C#N)N=NC(C)(C#N)CC(C)C` (centres unmarked) [2,2′-azobis(2,4-dimethylvaleronitrile)], the LD50 is recorded as 6000 mg/kg.
On to `CC(=O)OC(C)(N=NC(C)(OC(C)=O)c1ccccc1)c1ccccc1` (centres unmarked) [1,1-azobis(1-acetoxy-1-phenylethane)], for which the median lethal dose (LD50) is recorded as not below 5000 mg/kg.
As for `COC(=O)C(C)(C)N=NC(C)(C)C(=O)OC` [dimethyl 2,2′-azobisisobutyrate], the LD50 is 2369 mg/kg.
`N#CC1(N=NC2(C#N)CCCCC2)CCCCC1` [1,1′-azobis(2-cyclohexane-1-carbonitrile)]: the LD50 is on record as 11800 mg/kg.
